Experiments:
[1] = molecular target: T1, C22A-ZAK (Homo sapiens, UniProt Q9NYL2, C22A); assay: ZAK in vitro kinase activity assay (MBP substrate); assay type: biochemical; conditions: 10 or 100 μM HNE; immunoprecipitated enzyme
T1 construct: Full-length cDNA encoding human ZAK-13 (BC001401); expressed in transfected cells
Source text: (§1) The gel signals for IA-labeling of WT-ZAK were blocked by pretreatment with HNE over a concentration range that closely matched the HNE-sensitivity profile observed for C22 in competitive isoTOP-ABPP experiments (FIG. 4b, compare to FIG. 3a). […] Considering further that C22 is predicted to reside adjacent to the ATP-binding loop of ZAK, we postulated that the HNE-induced loss of kinase activity might be due to blockade of ATP-binding.
(§2) The kinase activity assay protocol was adapted from Yu et al^5. Kinase assay buffers, Myeilin Basic Protein (MBP) substrate, and ATP stock solution were purchased from SignalChem. Radio-labeled [^33P]-ATP was purchased from PerkinElmer. 10 mg of soluble lysate of HEK-293T cells transfected with each of wild-type, C22A and K45M of ZAK were immunoprecipitated and then eluted with 2×300 μL FLAG-peptide buffer. […] The spotted P81 strips were air dried and then washed with 10 mL of 1% phosphoric acid for 3×10 min ZAK activity was measured by counting the radioactivity on the P81 paper in the presence of scintillation fluid in a scintillation counter after subtracting the value obtained from the corresponding no substrate control, and was normalized to that of ZAK-WT without HNE treatment. […]

[2] = molecular target: T2, WT-ZAK (Homo sapiens, UniProt Q9NYL2); assay: ZAK in vitro kinase activity assay (MBP substrate); assay type: biochemical; conditions: 10 or 100 μM HNE; immunoprecipitated enzyme
T2 construct: Full-length cDNA encoding human ZAK-13 (BC001401); expressed in transfected cells
Source text: as §1, §2

[3] = system: JNK pathway activation; assay: Western blotting of phospho-JNK in mock-transfected HEK-293T cells; assay type: cell-based, human; conditions: 50 or 100 μM, 60 min
Description: We next set out to assess the functional effects of HNE modification of ZAK in human cells. HEK-293T cells were stably transfected with cDNAs for WT-ZAK, C22A-ZAK, or K45M-ZAK and the activation state of their MAPK signaling pathways was monitored by western blotting with anti-phosphoprotein antibodies. […] We next treated cells with H2O2 (1 mM, 30 min) to induce oxidative stress, a process that is known to activate the JNK pathway^41,42. H2O2 treatment stimulated JNK activity in both WT- and C22A-ZAK-transfected cells (but not K45M-ZAK-transfected cells), with WT-ZAK cells showing the greater level of activation (FIG. 5b,c). […] We interpret these findings to indicate the existence of both ZAK-dependent and ZAK-independent pathways for HNE modulation of JNK activation (FIG. 5d). By modifying C22 on ZAK, HNE blocks the contribution that this kinase makes to the activation of the JNK pathway. […]
Mouse and rabbit monoclonal antibodies against phospho-ERK 1/2 (Thr202/Tyr204), phosphor-SAPK/JNK (Thr183/[…]), phosphor-p38 MAPK (Thr180/[…]) and total ERK 1/2, SAPK/JNK and p38 MAPK were purchased from Cell Signaling Technology. […] Protein band intensities were quantified by ImageJ8 and ratios of phosphor-MAPK over total MAPK were computed. […]

CCCCCC(O)/C=C/C=O (stereo not drawn) [4-HNE, 4-Hydroxynonenal]
ZAK catalytic activity, C22A-ZAK residual activity [1]: insensitive
ZAK catalytic activity, WT-ZAK [2]: inhibited
JNK activation by HNE alone, mock-transfected cells [3]: activated JNK
